# Source: the NIST ThermoML archive (doi:10.1021/je020113t)
# ± gives the expanded uncertainty stated by the source.
# Conditions: visual observation
SMILES,Normal melting temperature (Crystal) [°C],Normal melting temperature (Crystal 1) [°C]
"Cc1nccn1C [1,2-dimethyl-1H-imidazole]",38.4 ± 0.5,
c1c[nH]cn1 [1H-imidazole],89.10 ± 0.5,
Cc1ncc[nH]1 [2-methylimidazole],,146 ± 0.5
